EC50 data for 27 molecules are collected here from US9480259B2, “Pyrazolopyrans having herbicidal and pharmaceutical properties” (BASF SE, priority 2012, dated 2016).

What is called EC50 is the concentration at which the effect is half-maximal. Read a high EC50 as weaker potency.

The assay addresses Arabidopsis thaliana SHMT. In words: SHMT activity assay (ED50 SHMT), coupled with N5,N10-CH2-THF dehydrogenase, NADH at 340 nm. The assay is classed as biochemical. Put shortly: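 His-tagged SHMT purified on Ni-NTA. NADH formation followed at 340 nm for 30 min; ED50 from inhibition of initial velocity.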
Setting [1] is: Table 2, values given as upper bounds.
The mark [2] stands for this setting: Table 2, Arabidopsis thaliana SHMT enzyme assay, values given as upper bounds.
The mark [3] stands for this setting: Arabidopsis thaliana SHMT enzyme assay, values given as upper bounds.

`CC(C)c1n[nH]c2c1C(c1ccc(Cl)cc1)(C1CC1)C(C#N)=C(N)O2` (stereo not drawn) [Compound 2.128.]: under setting [1], the EC50 was under 10000 nM.
`Cc1n[nH]c2c1C(c1cc(Cl)cc(Br)c1)(C1CCC1)C(C#N)=C(N)O2` (stereo not drawn) [Compound 2.207.]: the EC50 under setting [1] was under 10 nM.
The same measure, in the same setting: in the case of `COc1ccc(C2(C3CC3)C(C#N)=C(N)Oc3[nH]nc(C)c32)cc1C(F)(F)F` (stereo not drawn) [Compound 2.150.] it was under 100 nM.
In the case of `CCC1(c2ccc(OS(=O)(=O)c3ccc(Cl)cc3Cl)c(C)c2)C(C#N)=C(N)Oc2[nH]nc(C)c21` (stereo not drawn) [Compound 2.59.], under setting [1], the EC50 is under 10000 nM.
Turning to `N#CC1=C(N)Oc2[nH]nc(C(F)F)c2C1(c1cccc(C(F)(F)F)c1)C1CCC1` (stereo not drawn) [Compound 2.175.], the EC50 under setting [1] was under 1000 nM.
The same measure, in the same setting: then `Cc1n[nH]c2c1C(c1cc(C#N)cc(-c3ccc(C(=O)O)s3)c1)(C1CCC1)C(C#N)=C(N)O2` (stereo not drawn) [Compound 2.640], with under 10 nM; and `Cc1n[nH]c2c1C(c1cc(OCc3nnn[nH]3)cc(C(F)(F)F)c1)(C1CCC1)C(C#N)=C(N)O2` (stereo not drawn) [Compound 2.474], with under 10 nM.
`Cc1n[nH]c2c1C(c1cc(Br)cc(Br)c1)(C1CCC1)C(C#N)=C(N)O2` (stereo not drawn) [Compound 2.232] registered an EC50 under setting [2] of under 10 nM.
Molecule `Cc1n[nH]c2c1C(c1cc(Cl)cc(CCCC#N)c1)(C1CCC1)C(C#N)=C(N)O2` (stereo not drawn) [Compound 2.670] registered an EC50 under setting [3] of under 10 nM.
`Cc1n[nH]c2c1C(c1cccc(-c3cccc(C(=O)O)c3)c1)(C1CCC1)C(C#N)=C(N)O2` (stereo not drawn) [Compound 2.494] returned an EC50 under setting [1] of under 100 nM.
Under setting [1], `Cc1n[nH]c2c1C(c1cccc(-c3ccc(C(=O)O)cc3)c1)(C1CCC1)C(C#N)=C(N)O2` (stereo not drawn) [Compound 2.495] had an EC50 of under 10 nM.
In the case of `CCc1n[nH]c2c1C(c1ccc(OC)c(C(F)(F)F)c1)(C1CC1)C(C#N)=C(N)O2` (stereo not drawn) [Compound 2.152.], under setting [1], the EC50 was under 1000 nM.
In turn, `CCC1(c2ccc(OC(=O)C(C)(C)C)c(C)c2)C(C#N)=C(N)Oc2[nH]nc(C)c21` (stereo not drawn) [Compound 2.52.] registered an EC50 under setting [1] of under 1000 nM.
With `Cc1n[nH]c2c1C(c1cccc(C(F)(F)F)c1)(C(F)(F)F)C(C#N)=C(N)O2` (stereo not drawn) [Compound 2.95.], the EC50 under setting [1] was under 1000 nM.
For the molecule `COc1ccc(Oc2cc(Cl)cc(C3(C4CCC4)C(C#N)=C(N)Oc4[nH]nc(C)c43)c2)cc1` (stereo not drawn) [Compound 2.344], under setting [2], the EC50 is under 10 nM.
`Cc1n[nH]c2c1C(c1cc(CCc3nnn[nH]3)cc(-c3nnn[nH]3)c1)(C1CCC1)C(C#N)=C(N)O2` (stereo not drawn) [Compound 2.655]: the EC50 under setting [3] was under 10000 nM.
With `CCC1(c2cc(C#N)cc(C(F)(F)F)c2)C(C#N)=C(N)Oc2[nH]nc(COC)c21` (stereo not drawn) [Compound 2.588], under setting [1], the EC50 was under 100 nM.
`CCCC1(c2cc(Br)cc(C#N)c2)C(C#N)=C(N)Oc2[nH]nc(OC)c21` (stereo not drawn) [Compound 2.603] registered a 50% effective concentration (EC50) under setting [1] of under 1000 nM.
As to `N#CC1=C(N)Oc2[nH]ncc2C1(c1cc(Cl)cc(Cl)c1)C1CCCC1` (stereo not drawn) [Compound 2.256], under setting [2], the EC50 is under 10000 nM.
Molecule `COC(=O)Cc1cccc(-c2cc(C#N)cc(C3(C4CCC4)C(C#N)=C(N)Oc4[nH]nc(C)c43)c2)c1` (stereo not drawn) [Compound 2.524] returned an EC50 under setting [1] of under 10 nM.
`Cc1n[nH]c2c1C(c1cc(Cl)c(Cl)c(Cl)c1)(C1CCC1)C(C#N)=C(N)O2` (stereo not drawn) [Compound 2.209.] returned an EC50 under setting [1] of under 10 nM.
On the same count and under the same terms, then `CCCC1(c2cc(Br)cc(C#N)c2)C(C#N)=C(N)Oc2[nH]nc(C)c21` (stereo not drawn) [Compound 2.534], with under 10 nM; and `Cc1n[nH]c2c1C(c1cc(Cl)cc(Cl)c1)(C1(F)CCC1)C(C#N)=C(N)O2` (stereo not drawn) [Compound 2.180.], with under 100 nM.
`Cc1n[nH]c2c1C(c1cc(N3CCOCC3)cc(C(F)(F)F)c1)(C1CCC1)C(C#N)=C(N)O2` (stereo not drawn) [Compound 2.271] came in with a concentration for a half-maximal effect (EC50) under setting [2] of under 10 nM.
`CCOC(=O)COc1cc(Br)cc(C2(C3(F)CC3)C(C#N)=C(N)Oc3[nH]nc(C)c32)c1` (stereo not drawn) [Compound 2.479] returned an EC50 under setting [1] of under 100 nM.
For the molecule `N#CC1=C(N)Oc2[nH]nc(C(F)F)c2C1(c1ccc(Cl)s1)C1CC1` (stereo not drawn) [Compound 4.83], under “inhibition of initial velocity of Arabidopsis thaliana SHMT”, the EC50 was under 10000 nM.
In turn, `CCC1(c2cc(F)cc(C(F)(F)F)c2)C(C#N)=C(N)Oc2[nH]nc(C)c21` (stereo not drawn) [Compound 2.33.] came in with an EC50 under setting [1] of under 100 nM.
